From patent US11591350B2, “Modulators of cystic fibrosis transmembrane conductance regulator” (Vertex Pharmaceuticals Incorporated, priority 2019, dated 2023)

Each compound was assayed against CFTR (Homo sapiens, UniProt P13569) (assay: Membrane potential dye assay (FLIPR Tetra) of CFTR-mediated chloride transport in enteroid cells). Settings: human intestinal epithelial enteroid cells; test compound 18-24 hours; acute 10 μM forskolin and 300 nM Compound III.
Sequence of CFTR (P13569 with tags, fused parts or gaps DEL508-508): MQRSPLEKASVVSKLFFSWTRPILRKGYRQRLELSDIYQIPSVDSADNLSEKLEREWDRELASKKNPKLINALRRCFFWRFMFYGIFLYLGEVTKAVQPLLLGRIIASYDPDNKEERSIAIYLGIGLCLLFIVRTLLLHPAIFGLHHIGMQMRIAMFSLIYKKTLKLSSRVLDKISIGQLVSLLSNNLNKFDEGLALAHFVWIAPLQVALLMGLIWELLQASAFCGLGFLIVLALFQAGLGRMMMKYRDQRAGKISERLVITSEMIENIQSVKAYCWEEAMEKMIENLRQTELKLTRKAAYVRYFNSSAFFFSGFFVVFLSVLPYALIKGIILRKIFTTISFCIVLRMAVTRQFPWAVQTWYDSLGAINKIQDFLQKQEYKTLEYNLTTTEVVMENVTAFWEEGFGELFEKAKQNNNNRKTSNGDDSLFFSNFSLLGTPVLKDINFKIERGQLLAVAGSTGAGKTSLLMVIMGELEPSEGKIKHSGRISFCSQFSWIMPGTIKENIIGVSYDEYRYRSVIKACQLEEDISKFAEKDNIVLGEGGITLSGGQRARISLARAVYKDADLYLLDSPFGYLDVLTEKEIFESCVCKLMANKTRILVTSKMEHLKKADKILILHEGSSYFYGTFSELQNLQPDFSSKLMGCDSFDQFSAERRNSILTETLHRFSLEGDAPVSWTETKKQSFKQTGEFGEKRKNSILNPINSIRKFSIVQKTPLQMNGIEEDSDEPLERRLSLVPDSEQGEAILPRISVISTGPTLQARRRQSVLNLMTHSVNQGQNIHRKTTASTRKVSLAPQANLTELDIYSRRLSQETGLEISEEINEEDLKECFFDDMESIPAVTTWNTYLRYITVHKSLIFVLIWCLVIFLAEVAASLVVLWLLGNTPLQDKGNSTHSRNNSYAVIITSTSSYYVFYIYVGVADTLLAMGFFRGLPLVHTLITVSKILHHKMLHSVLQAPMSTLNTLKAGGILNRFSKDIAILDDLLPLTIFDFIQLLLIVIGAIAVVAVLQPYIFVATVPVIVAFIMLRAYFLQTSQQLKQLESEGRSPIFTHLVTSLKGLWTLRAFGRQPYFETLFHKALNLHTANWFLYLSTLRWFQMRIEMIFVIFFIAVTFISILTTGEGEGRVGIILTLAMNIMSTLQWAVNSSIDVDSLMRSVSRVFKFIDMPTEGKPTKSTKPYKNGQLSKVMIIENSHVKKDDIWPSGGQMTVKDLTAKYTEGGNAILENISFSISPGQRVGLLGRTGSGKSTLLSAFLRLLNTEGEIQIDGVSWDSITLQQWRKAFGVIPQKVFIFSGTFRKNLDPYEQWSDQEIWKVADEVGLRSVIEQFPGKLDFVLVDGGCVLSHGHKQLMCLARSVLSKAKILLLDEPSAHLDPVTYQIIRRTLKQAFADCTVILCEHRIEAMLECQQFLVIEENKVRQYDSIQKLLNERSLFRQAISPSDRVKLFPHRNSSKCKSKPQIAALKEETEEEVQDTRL
Type: cell-based
Description: Enteroid Cell Harvesting and Seeding
Membrane Potential Dye Assay
`CC1(C)C[C@@H]2CCCNc3cccc(n3)S(=O)(=O)NC(=O)c3ccc(-n4ccc(OC[Si](C)(C)C)n4)nc3N1C2` [Compound (1-8), (14S)-12,12-dimethyl-8-{3-[(trimethylsilyl)methoxy]-1H-pyrazol-1-yl}-2λ^6-thia-3,9,11,18,23-pentaazatetracyclo[17.3.1.111,14.05,10]tetracosa-1(22),5(10),6,8,19(23),20-hexaene-2,2,4-trione] gave an EC50 of under 1000 nM. `CC(C)(C)CC[Si](C)(C)c1ccn(-c2ccc3c(n2)N2C[C@@H](CCCNc4cccc(n4)S(=O)(=O)NC3=O)CC2(C)C)n1` [Compound (1-4), (14S)-8-{3-[(3,3-dimethylbutyl)dimethylsilyl]-1H-pyrazol-1-yl}-12,12-dimethyl-2λ^6-thia-3,9,11,18,23-pentaazatetracyclo[17.3.1.111,14.05,10]tetracosa-1(23),5(10),6,8,19,21-hexaene-2,2,4-trione] was tested, and the EC50 was under 1000 nM. Compound `CC1(C)C[C@@H]2CCCNc3cccc(n3)S(=O)(=O)NC(=O)c3ccc(-n4ccc(OC[Si](C)(C)C5(C(F)(F)F)CC5)n4)nc3N1C2` [Compound (1-1), (14S)-8-[3-({dimethyl[1-(trifluoromethyl)cyclopropyl]silyl}methoxy)-1H-pyrazol-1-yl]-12,12-dimethyl-2λ^6-thia-3,9,11,18,23-pentaazatetracyclo[17.3.1.111,14.05,10]tetracosa-1(22),5(10),6,8,19(23),20-hexaene-2,2,4-trione] has an EC50 of under 1000 nM. `CC1(C)C[C@@H]2CCCNc3cccc(n3)S(=O)(=O)NC(=O)c3ccc(-n4ccc(OCCC5([Si](C)(C)C)CC5)n4)nc3N1C2` [(1-3)] gave an EC50 of under 1000 nM. Work on `CC1(C)C[C@@H]2CCCNc3cccc(n3)S(=O)(=O)NC(=O)c3ccc(-n4ccc(OCC[Si](C)(C)C)n4)nc3N1C2` [Compound (1-7), (14S)-12,12-dimethyl-8-{3-[2-(trimethylsilyl)ethoxy]-1H-pyrazol-1-yl}-2λ^6-thia-3,9,11,18,23-pentaazatetracyclo[17.3.1.111,14.05,10]tetracosa-1(22),5(10),6,8,19(23),20-hexaene-2,2,4-trione] yielded an EC50 of under 1000 nM. Work on `CC1(C)C[C@@H]2CCCNc3cccc(n3)S(=O)(=O)NC(=O)c3ccc(-n4ccc(O[CH2][Ge]([CH3])([CH3])[CH3])n4)nc3N1C2` [Compound (2-1), (14S)-12,12-dimethyl-8-{3-[(trimethylgermyl)methoxy]-1H-pyrazol-1-yl}-2λ^6-thia-3,9,11,18,23-pentaazatetracyclo[17.3.1.111,14.05,10]tetracosa-1(23),5(10),6,8,19,21-hexaene-2,2,4-trione] yielded an EC50 of under 1000 nM. `CC1(C)C[C@@H]2CCCNc3cccc(n3)S(=O)(=O)NC(=O)c3ccc(-n4ccc(OC[Si](C)(C)C(C)(C)C)n4)nc3N1C2` [Compound (1-2), (14S)-8-{3-[(tert-butyldimethylsilyl)methoxy]-1H-pyrazol-1-yl}-12,12-dimethyl-2λ^6-thia-3,9,11,18,23-pentaazatetracyclo[17.3.1.111,14.05,10]tetracosa-1(23),5(10),6,8,19,21-hexaene-2,2,4-trione] gave an EC50 of under 1000 nM. With `CC1(C)C[C@@H]2CCCNc3cccc(n3)S(=O)(=O)NC(=O)c3ccc(-n4ccc(OCCC[Si](C)(C)C)n4)nc3N1C2` [Compound (1-6), (14S)-12,12-dimethyl-8-{3-[3-(trimethylsilyl)Propoxy]-1H-pyrazol-1-yl}-2λ^6-thia-3,9,11,18,23-pentaazatetracyclo[17.3.1.111,14.05,10]tetracosa-1(22),5(10),6,8,19(23),20-hexaene-2,2,4-trione] the EC50 was under 1000 nM.
